Data as given in PMC9323733, “Efficacy of Vafidemstat in Experimental Autoimmune Encephalomyelitis Highlights the KDM1A/RCOR1/HDAC Epigenetic Axis in Multiple Sclerosis” (Pharmaceutics, 2022).
Entries after “also recorded” stand apart in the source; their conditions may differ.

Assays:
[1] = tested on: SJL/J mice infected with TMEV; assay: Theiler's murine encephalomyelitis virus (TMEV) model; type: in vivo, mouse
Protocol: Susceptible SJL/J mice (6 weeks old), previously anesthetized with isoflurane, were inoculated in the cerebral parenchyma with 2 × 10^6 plaque forming units (pfu) of the Daniel’s strain of TMEV, diluted in 30 μL of Dulbecco’s Modified Eagle Medium (DMEM) supplemented with 5% fetal bovine serum (FBS). The injection takes place in the right hemisphere of the cerebral cortex using a Hamilton syringe coupled to a pipette tip in such a way that it allows for an exposure of the needle of about 2–3 mm; thus, the virus is always injected at the same depth. Sham animals are subjected to the same protocol, but they only received 30 µL of DMEM supplemented with 5% fetal bovine serum. […] Control mice were treated with vehicle [2% v/v Tween-80 + 98% HPβCD (13% w/v)] following the same administration regime (Figure 4a). The animals were weighed every week from the onset of infection and clinical signs were evaluated using the criterion described by Moses Rodriguez (Mayo Clinic), source of the Daniel’s strain of TMEV to assess the severity of the disease by the general appearance: Score 1 = Shaggy and scruffy hair; 2 = scruffy appearance and hunched back; 3 = no spontaneous movement, reduced induced activity; and Gait: Score 1 = mild ataxia with inconsistent waddling gait; 2 = moderate ataxia with consistent waddling gait; 3 = severe ataxia with reduced righting response; 4 = spastic paresis of hind legs. The score of the animals and motor behavior were analyzed by trained observers blind to treatment and experimental groups.
The screening for locomotor activity was performed by analyzing spontaneous motor activity using an Activity Cage (Activity Monitor System Omnitech Electronics, Inc., Columbus, OH, USA) and by evaluating the mice performance in the Rotarod test. The activity cage consists of a four-compartment metacrylate cage, surrounded by sensors in such a way that it registers the movements of the mouse in both vertical and horizontal position and ambulation. The test consists of introducing the mice into two compartments of the cage placed diagonally so as not to interfere with the sensors of the other mouse. During two five-minute cycles (0–5 min, 5–10 min), horizontal activity (HACTV) or vertical activity (VACTV) are recorded. The first cycle evaluates the spontaneous activity in a new environment and the second measures the activity of the animal once habituated to the new environment. This task was performed on days 60, 70, 78, and 86 post-infection. The rotarod (Ugo Basile, Milan, Italia) consists of a rotating cylinder (roll) suspended above a cage floor turning at a constant speed or acceleration. The system is completed with a stopwatch for each compartment that stops when the mouse falls from the roll to a lever on the bottom of the device. One week prior to the test, mice were trained and familiarized with the test for one minute at a constant speed. The length of time that mice stay on the rotating roll is a measure of their balance and motor coordination. The test consists of measuring the time that mice remain on the roll with constant acceleration for a maximum time of five minutes. Mice that developed strategies to stay on the roll (p.e. seeking support on the wall) were excluded from evaluation. The rotarod test was performed on day 72, 78, and 86 post-infection.
Cervical and lumbar spinal cord segments of spinal cords obtained from EAE mice sacrificed on day 17 or 26 post-immunization were divided and processed for inclusion and sectioning in paraffin and for inclusion in an optimal cutting temperature (OCT) compound and future cryosectioning of the samples. Spinal cord segments were immediately fixed with buffered 10% formalin for 48 h, dehydrated and included in paraffin using standard techniques. […]

[2] = tested on: patients and healthy volunteers; details: cited from earlier work
circulating lymphocytes = assay: Toxicity studies, overall statements (circulating lymphocytes, gastrointestinal toxicity); type: in vivo, rat and dog; details: for total number of circulating lymphocytes: at doses effective in EAE and TMEV models
From the text: T r eat m e nt N Ly m p h o c y te s Equivalent m ou se d o se
( mg /k g p. o. ga va g e) (109/ L ) ( mg /k g p.o ga va ge)
6 m ont h s W i sta r r at s
9 m ont h s Be ag le d og s
Eff ec t of t r ea t me nt wi t h O RY-2 00 1 a d mi ni st e r e d by or al ga va ge o n l y m ph oc yt e s ob se r ve d i n G LP
t ox i c ol ogi c a l st udi e s i n r at a nd do g. A ni ma l s we r e t re a t e d or al l y (fi ve c o ns e c ut i ve da ys/ we e k) by ga va ge
28 da ys or 6 mo nt hs ( ra t s) a nd 28 da ys or 9 mo nt hs (dogs). Data re prese nt de me a n ± S D. T he e q ui va l e n t
dos e i n m o use i s i n di c at e d. 1-wa y A N OV A a n d D u n ne t t’ s M ul ti pl e C o m pa ri so n t e st wa s use d.

Nc1nnc(CN[C@@H]2C[C@H]2c2ccc(OCc3ccccc3)cc2)o1 [ORY-2001]
CD4 and CD8 lymphocytes in spinal cord parenchyma ([1]; p.o. 0.3 and 1.0 mg/kg): decreased the accumulation of CD4 and CD8 lymphocytes into the parenchyma
body weight ([1]; p.o. 0.3 and 1.0 mg/kg): did not produce any body weight changes
horizontal activity (activity cage) ([1]; p.o. 0.3 and 1.0 mg/kg): significantly improved the motor activity in the horizontal activity
infiltration of immune cells into the spinal cord ([1]; p.o. 0.3 and 1.0 mg/kg): diminished after ORY-2001 treatment
other motor deficits (vertical activity, rotarod) ([1]; p.o. 0.3 and 1.0 mg/kg): partially reduced other motor deficits
clinical score ([1]; p.o. 0.3 and 1.0 mg/kg, days 72-76 and 79-83 post-infection): reduced the clinical score
astroglial activation ([1]; spinal cord): partially limited astroglial activation
axon integrity ([1]; spinal cord): increased axon integrity
microglial activation (AIF-1 positive cells) ([1]; spinal cord): significantly reduced microglial activation
YKL40 levels in patients ([2]; AD Phase II trial ETHERAL, relative to placebo): significantly reduced relative to placebo
aggression ([2]; BPD, ADHD, ASD and moderate-severe AD, Phase IIa REIMAGINE and REIMAGINE-AD): significantly reduced aggression
safety in humans ([2]; more than 300 subjects in multiple studies): has been shown to be safe
safety and tolerability, long-term treatment ([2]; relapse-remitting and secondary progressive MS, SATEEN): safe and well tolerated
total number of circulating lymphocytes (circulating lymphocytes): did not significantly impact the total number of circulating lymphocytes
total number of circulating lymphocytes (circulating lymphocytes; listed as vafidemstat): do not significantly impact the total number of circulating lymphocytes; also recorded: do not significantly affect hematology or lymphocyte counts
gastrointestinal toxicity (circulating lymphocytes; at effective doses, listed as vafidemstat): did not induce any signs of gastrointestinal toxicity; also recorded: without signs of gastro-intestinal toxicity
